The target in test [1] is T1, bovine serum albumin (BSA) (Bos taurus, UniProt P02769).
T1 construct: purchased Sigma–Aldrich Co
Nature of the test: Albumin binding by tryptophan fluorescence quenching (BSA). Conditions: for ΔΙ/Ιο, quenching of the BSA fluorescence: BSA 3 μM, λex 295 nm; for % relative BSA fluorescence emission intensity I/Io remaining (% of initial): final value, pH 7.0; for BSA-binding constant K: Scatchard equation; for BSA-quenching constant kq: from Stern–Volmer plots, τo 10^-8 s. The text has this: Serum albumins are among the important proteins of the circulatory system. Their main role is to carry drugs and other bioactive small molecules through the bloodstream. BSA and HSA are structurally homologous albumins, having two and one tryptophan residues, respectively. The tryptophan residues of both albumins are responsible for the intense fluorescence emission band with λem,max = 342 nm for BSA and 350 nm for HSA, respectively, when their solutions are excited at 295 nm. […] The inner-filter effect was calculated with Equation (S4) and it was found too low to affect the measurements.
When the compounds were added to a solution of the albumins (3 μM), a significant quenching of the BSA (λem = 342 nm) and HSA (λem = 350 nm) fluorescence emission bands was observed (Figure 7) which was more pronounced in the case of BSA (Table 7 and Figure 8). […] The observed quenching may be ascribed to changes in the tryptophan environment of SA resulting from possible denaturation of their secondary structure, induced by the binding of the complexes to the albumins. […]
Io =1+ k τ [Q] =1+ K [Q] […]
S3Albumin -binding studies
In order to investigate if the compounds can bind to carrier proteins like serum albumins, we carried out albumin binding study by tryptophan fluorescence quenching experiments using bo vine serum albumin (BSA, 3 μM) in buffer (containing 15 mM trisodium citrate and 150 mM NaCl at pH 7.0). The quenching of the emission intensity of tryptophan residues of BSA at 343 nm was monitored using the co mpounds as que ncher s with increasing concentration [S4]. The fluo rescence emission spectra of the compounds were also recorded with λex = 295 nm. No fluorescence emission band was recorded and thus it was not related to the compounds . The influence of the inner-filter effect [S6] on the measurements wa s evaluated by equation S4.
Where Icorr = corrected intensity, Imeas = the measured intensity, c = the concentration of the quencher, d = the cuvette (1 cm), ε (λexc ) and ε(λe m) = the ε of the quencher at the excitation and the emission wavelength, respectively, as calculated from the UV-vis spectra of the […]
The Stern-Volmer and Scatchard graphs are used to study the interaction of the compounds with serum albumins. According to Stern-Volmer quenching equation (eq.
S2), where Io = the initial tryptophan fluorescence intensity of SA, I = the tryptophan fluorescence intensity of SA after the addition of the quencher, kq = the quenching […]
constant, KSV = the Stern-Volmer constant, τo = the average lifetime of SA without the quencher, and, tak ing as fluorescence lifet ime (τo) of tryptophan in SA at around 10-8 s [S 4] , KSV (in M -1) can be obtained by the slope of the diagram Io/I versus [compound] (Stern-Volmer plots), and subsequently the quenching (kq, in M -1s-1) may be calculated from eq.
From the Scatchard equation (eq. S5): […]
where n is the number of binding sites per albumin and K is the SA-binding constant (K, in M -1) is calculated from the slope in plots (ΔI/Io)/[complex] versus ΔI/Io and n is given by the ratio of y intercept to the slope [S7].
S1 Kontogiorgis, C.; Hadjipavlou–Lit ina, D. Biological Evaluat ion of Several Coumarin Derivatives Designed as Possible Anti–inflammatory/Antioxidant Agents. J. Enz. Inhib.
S2 Ruch, R.J.; Cheng, C.; Klaunig, J.E. Prevention of cytotoxicity and inhibition of intercellular communication by antioxidant catechins isolated from Chinese green tea.
S3 Wolfe, A.; Shimer, G.; Meehan, T. Polycyclic Aromatic Hydrocarbons Physically Intercalate into Duplex Regions of Denatured DNA. Biochemistry 1987, 26, 6392–6396.
S4 Lakowicz, J.R. Principles of Fluorescence Spectroscopy , 3rd ed.; Plenum Press: New […]
S5 Heller, D.P.; Greenstock, C.L. Fluorescence lifetime analysis of DNA intercalated ethid ium bromide and quench ing by free dye. Biophys. Chem.1994,50, 305–312.
S6 Stella, L.; Capodilupo, A.L.; Bietti, M. A reassessment of the association between […]
azulene and [60]fullerene. […]

Another test concerns CT DNA. Nature of the test: Binding study with CT DNA by UV-vis spectroscopy. Set-up: species or system calf. The protocol: Initially, the UV–vis spectra of complexes 1–5 (2.5 × 10^−5 – 1 × 10^−4 M) were recorded in the presence of incremental amounts of CT DNA (Figure 4), and the changes of the λmax of the bands observed in the spectra of the complexes were monitored as a means to study the interaction between complexes and CT DNA [50] and to calculate the corresponding DNA-binding constants (Kb). As observed, in the UV–vis spectra of the complexes, at least two bands were observed: band I in the range 314–339 nm and band II in the region 380–428 nm. […] These features indicate the interaction of the complexes with CT DNA [51], but may not provide sufficient information to reveal the possible interaction mode. Therefore, for the elucidation of the CT DNA interaction mode, further experiments involving DNA-viscosity measurements and competitive studies with EB were performed. […]
S2Binding studies with CT DNA
The interaction of the compounds with CT DNA was studied by UV-vis spectroscopy, viscosity measurements a nd via competit ive stud ie s with EB by fl uorescence […]
S2.1 Binding study with CT DNA by UV -vis spectroscopy
The interaction of the compounds with CT DNA has been studied by UV-vis spectroscopy in order to investigate the possible binding modes to CT DNA and to calculate the DNA-binding constants (Kb). The Kb constants (in M-1) were determined by the Wolfe-Shimer equation (eq. S1) [S3] and the plots [DNA]/(εA-εf) versus [DNA] using the UV-vis spectra of the compounds (20 -100 μM) recorded for a constant concentration with increasing concentrations of CT DNA for diverse [complex]/[DNA] mixing ratios (= r ).
Control experiments with DMSO were performed and no changes in the spectra of CT DNA were observed. […]
[DNA] = [DNA] + 1 (eq. S1) […]
where [DNA] is the concentration of DNA in base pa irs, εA = Aobsd/[compound ], εf = the extinction coefficient for the free compound and ε b = the extinction coefficient for the compound in the fully bound form. Kb is given by the ratio of slope to the y intercept in plots [DNA]/(εA-εf) versus[DNA]. […]

[2] abbreviates: first UV band listed in the cell (295–334 nm).
[3] abbreviates: second UV band listed in the cell (330–421 nm).

T1 sequence (P02769 25-607): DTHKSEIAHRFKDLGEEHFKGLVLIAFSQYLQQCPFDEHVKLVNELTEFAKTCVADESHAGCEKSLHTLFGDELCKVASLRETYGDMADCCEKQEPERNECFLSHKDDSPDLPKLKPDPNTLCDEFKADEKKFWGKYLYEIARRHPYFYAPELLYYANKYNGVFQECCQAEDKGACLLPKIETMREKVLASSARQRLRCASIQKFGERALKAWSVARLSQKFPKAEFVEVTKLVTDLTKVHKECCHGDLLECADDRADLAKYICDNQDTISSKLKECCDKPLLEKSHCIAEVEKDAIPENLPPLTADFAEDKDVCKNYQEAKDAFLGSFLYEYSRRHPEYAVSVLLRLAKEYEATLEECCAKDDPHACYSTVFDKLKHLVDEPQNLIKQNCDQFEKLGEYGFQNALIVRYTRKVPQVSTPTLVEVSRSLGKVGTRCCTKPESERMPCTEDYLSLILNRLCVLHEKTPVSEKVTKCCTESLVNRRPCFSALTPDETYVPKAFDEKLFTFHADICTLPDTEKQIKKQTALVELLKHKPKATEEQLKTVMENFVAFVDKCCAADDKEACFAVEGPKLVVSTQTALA

In the case of `O=Cc1cc(F)ccc1[O-].O=Cc1cc(F)ccc1[O-].[Cu+2]` [Complex 1, [Cu(5–F–salo)2]], in test [1], the “ΔΙ/Ιο, quenching of the BSA fluorescence” value was 62.5%; the “% relative BSA fluorescence emission intensity I/Io remaining (% of initial)” value is given as 37.5%; the “BSA-binding constant K” value is 4.05 (±0.02) × 10^4 M^−1; the BSA-quenching constant kq is listed as 9.38 (±0.28) × 10^12 M^−1 s^−1. Moreover, the “ΔA/Aο, percentage of hyper-/hypo-chromism upon addition of CT DNA” value (from here on “ΔA/Aο, percentage”) with CT DNA (setting [2]) is listed as −34%. The “ΔA/Aο, percentage” value in the test with CT DNA (setting [3]) is given as −20%.

In the case of `O=Cc1cc(F)ccc1[O-].O=[N+]([O-])[O-].[Cu+2].c1cnc2c(c1)ccc1cccnc12` [Complex 4, [Cu(5–F–salo)(phen)(NO3)]], in test [1], the “ΔΙ/Ιο, quenching of the BSA fluorescence” value is 75.3%; the “% relative BSA fluorescence emission intensity I/Io remaining (% of initial)” value stood at 24.7%; the “BSA-binding constant K” value is listed as 2.35 (±0.10) × 10^5 M^−1; the BSA-quenching constant kq is listed as 1.62 (±0.06) × 10^13 M^−1 s^−1. Also, the “ΔA/Aο, percentage” value in the test on CT DNA (setting [2]) is −38%. In the test with CT DNA (setting [3]), the “ΔA/Aο, percentage” value is −29%. Besides, in the test on CT DNA (third UV band listed in the cell (405 nm)), the “ΔA/Aο, percentage” value is given as “+44%”.

Consider `O=Cc1cc(F)ccc1[O-].[Cl-].[Cu+2].c1ccc(Nc2ccccn2)nc1` [Complex 2, [Cu(5–F–salo)(bipyam)Cl]], for which, in test [1], the “ΔΙ/Ιο, quenching of the BSA fluorescence” value was 54.0%; the “% relative BSA fluorescence emission intensity I/Io remaining (% of initial)” value is on record as 46.0%; the “BSA-binding constant K” value was 3.15 (±0.18) × 10^4 M^−1; the BSA-quenching constant kq is reported as 6.49 (±0.14) × 10^12 M^−1 s^−1. Besides, the “ΔA/Aο, percentage” value in the test with CT DNA (setting [2]) is −12%. Moreover, in the test on CT DNA (setting [3]), the “ΔA/Aο, percentage” value was “> +50%”.

On to `O=Cc1cc(F)ccc1[O-].O=[N+]([O-])[O-].[Cu+2].c1ccc(-c2ccccn2)nc1` [Complex 5, [Cu(5–F–salo)(bipy)(NO3)]], for which, in test [1], the “ΔΙ/Ιο, quenching of the BSA fluorescence” value worked out at 68.3%; the “BSA-binding constant K” value is 3.23 (±0.12) × 10^5 M^−1; the BSA-quenching constant kq is on record as 1.87 (±0.09) × 10^13 M^−1 s^−1. In the test on CT DNA (setting [2]), the “ΔA/Aο, percentage” value is −72%. Also, in the test with CT DNA (setting [3]), the “ΔA/Aο, percentage” value was −28%.

For `CO.Cc1ccc2ccc3ccc(C)nc3c2n1.O=Cc1cc(F)ccc1[O-].[Cl-].[Cu+2]` [Complex 3, [Cu(5–F–salo)(neoc)Cl].CH3OH], in test [1], the “ΔΙ/Ιο, quenching of the BSA fluorescence” value worked out at 84.3%; the “% relative BSA fluorescence emission intensity I/Io remaining (% of initial)” value was determined as 15.7%; the “BSA-binding constant K” value is 2.51 (±0.10) × 10^5 M^−1; the BSA-quenching constant kq is 2.75 (±0.10) × 10^13 M^−1 s^−1. Besides, the “ΔA/Aο, percentage” value in the test on CT DNA (setting [2]) is recorded as −41%. Besides, the “ΔA/Aο, percentage” value in the test on CT DNA (setting [3]) is listed as “+34%”.

The values are drawn from paper PMC9782626, “Copper(II) Complexes of 5–Fluoro–Salicylaldehyde: Synthesis, Characterization, Antioxidant Properties, Interaction with DNA and Serum Albumins” (Molecules, 2022).
